# Assay results taken from patent US7744854B2, “Method for optimizing cancer therapy by monitoring maturation of tumor associated vasculature by selenium” (Health Research, Inc., priority 2006, dated 2010).
# “Also recorded” adds a separate entry of the source.
# Columns and labels:
# FaDu tumors = assay: CD31/α-SMA double immunohistochemical staining of FaDu tumors; assay type: in vivo, mouse; details: day 14 of MSC treatment
# Excerpt: MSC treatment results in reduction of tumor vascular leakiness as reflected by the slope of the ΔR1 values in FaDu xenografts. This could be a result of tumor vascular maturation as determined by the double immunohistochemical staining for the pan endothelial cell adhesion molecule (PECAM; CD31) and α-SMA in control and MSC treated mice (Day 14 of MSC treatment).
# This is in agreement with our estimates of MVD as MSC treatment does lead to a reduction in MVD. However, the decrease in permeability could be a result of the ‘maturation’ effect of MSC. To validate findings from the imaging studies, immunohistochemical staining for the pan endothelial cell adhesion molecule (PECAM; CD31) along with staining with alpha-smooth muscle actin was performed in control and MSC-treated mice (Day 14 after treatment).
# [1] = Tumor drug uptake by HPLC in FaDu xenografts; assay type: in vivo
# Method: FIGS. 6A and 6B show the effect of 14 days pre-treatment with MSC prior to drug administration on tumor drug uptake (2 hours post i.v.) as determined by HPLC in FaDu xenografts for CPT-11 and doxorubicin respectively. […] The drug concentration in the normal tissues studied such as liver, plasma.
# HNSCC xenograft FaDu = assay: Dose and schedule dependence of therapeutic synergy with irinotecan in FaDu xenograft; assay type: in vivo
# Excerpt: A minimum 7 days pretreatment with MSC is required to achieve optimal therapeutic synergy with a representative anticancer drug—irinotecan. […] Daily pretreatment for 7-14 days was critical to achieve the selective effects of selenium. This reflects the time required for priming of tumor vasculature by MSC in order to see the therapeutic end results.
# Thrombospondin-1 (TSP-1) = assay: Western blot of FaDu xenografts: TSP-1; assay type: in vivo; details: selenium for 14 days
# Excerpt: (§1) MSC up-regulates Thrombospondin-1 (TSP-1) a potent inhibitor of angiogenesis and important controller of tumor growth and its receptor CD36 (FIG. 8A), HIF-1α expression (FIG. 8B) and relative intensity (FIG. 8C). To assess the effects of selenium on TVM, the expression of molecular markers associated with tumor hypoxia, drug resistance and increased proliferation, namely, hypoxia-inducible factor 1∝ (HIF-1∝), Cyclooxygenase-2 (Cox-2), inducible nitric oxide, propyl hydroxyl domain (PHD) and vascular endothelial growth factor (VEGF) were evaluated in xenograft tumors. Selenium was administered for 14 days. Western blot analysis was performed to determine the effect of MSC treatment on different antiangiogenic markers TSP-1, CD36, Delta-like 4 ligand (DLL4) and hypoxia inducible factor HIF-1α Data in FIG. 8A indicate that CD36 is up regulated in FaDu xenografts treated with MSC. Along with the CD36 MSC up regulates TSP-1, which is known to be involved in the inhibition of angiogenesis. Further, MSC down-regulates DLL4 in FaDu xenografts.
# FaDu xenografts [2] = assay: Intratumoral microvessel density (CD31 immunostaining) in FaDu xenografts; assay type: in vivo; details: 0.2 mg/mouse/day, after 2 weeks, p<0.05
# Excerpt: Microvessels were counted based on endothelial cells immunostaining with CD31 Mab on paraffin sections, after zinc fixative (p<0.05 in each system).
# [3] = test system: endothelial cells in the angiogenic microvessels; assay: CD31/Tunnel double staining of angiogenic microvessels; assay type: in vivo, mouse
# Excerpt: (§2) Thus, selenium inhibits proliferation of endothelial cells.
# HIF-1α = HIF-1α expression in hypoxic FaDu tumor cells in vitro; assay type: cell-based; details: 24 hr hypoxic conditions, preliminary results
# Excerpt: To determine whether HIF-1α is a target for MSC, FaDu tumor cells were exposed in vitro for 24 hr to hypoxic conditions and analyzed for HIF-1α expression to FaDu cells. […] The data in FIG. 8C is graphic representation of the relative intensity of each marker.
# tumor microvessels = assay: Histopathological studies for direct antivascular effect; assay type: in vivo, mouse; details: histopathology
# Excerpt: as §2
# FaDu xenografts [4] = assay: DCE-MRI (albumin-GdDTPA) of tumor vascular permeability and volume in FaDu xenografts; assay type: in vivo, mouse
# Method: FaDu xenograft bearing mice were used. MSC was administered for 14 days. Mice were imaged using a 4.7-T/33-cm horizontal bore magnet (GE NMR Instruments, Fremont, Calif.) incorporating AVANCE digital electronics [Bruker Biospec, ParaVision 3.0.2 OS); Bruker Medical, Billerica, Mass.], a removable gradient coil insert (G060; Bruker Medical) generating a maximum field strength of 950 mT/m, and a custom-designed radiofrequency transreceiver coil. Animals were anesthetized before imaging with a ketamine/xylazine mixture (10:1) at a dose of […], secured in a mouse coil chamber, and positioned on a scanner. The animals were kept warm in the magnet using a circulating water bath maintained at 37 jC. […] T1 relaxation rates were determined using a saturation recovery, fast spin echo sequence with an effective echo time (TE) of 10 milliseconds, and a TR ranging from 360 to 6000 milliseconds [FOV=32×32 mm, slice thickness=1.0 mm, matrix size=128×96 pixels, number of excitations (NEX)=3]. […]
# Image processing and analysis were carried out using commercially available software (ANALYZE PC, Version 5.0; Biomedical Imaging Resource, Mayo Foundation, Rochester, Minn.) (Matlab's curve-fitting toolbox, Matlab Version 7.0; Math Works, Inc., Natick, Mass.). […] Percent tumor enhancement (E) was then calculated from relative intensity (RI) […]
# [5] = test system: Delta-like 4 ligand (DLL4); assay: Western blot of FaDu xenografts: DLL4; assay type: in vivo; details: selenium for 14 days
# Excerpt: as §1
# CD36 = assay: Western blot of FaDu xenografts: CD36; assay type: in vivo; details: selenium for 14 days
# Excerpt: as §1
# FaDu xenografts [6] = assay: Hoechst 33342 / DiOC7 fluorescent dye uptake, functional tumor vasculature; assay type: in vivo, mouse; details: post 14 days MSC treatment
# Method: Initial studies on uptake of fluorescent dyes Hoechst 33342 (i.v at 15 mg/kg in sterile phosphate buffered saline) followed 20 minutes later with DiOC7 (i.v. at 1 mg/kg in dimethyl sulfoxide) in mice bearing A253 and FaDu xenografts are indicative of tumor vascular maturation by MSC. Uptake of both dyes is indicative of functional vasculature while uptake of only one dye is indicative of […] vasculature. […] Abnormal vasculature shut off when challenged with dyes similar to Hoechst 33342 while blood flow through ‘normalized’ vasculature is not affected.
# [7] = test system: HNSCC xenografts FaDu and A253; assay: Tumor vascular maturation index and mean vessel lumen area; assay type: in vivo; details: vs untreated control tumors
# Excerpt: FIG. 5A summarizes effect of MSC treatment on tumor vascular maturation index (VMI) and on the mean tumor vessel lumen area (FIG. 5B) in HNSCC xenografts FaDu and A253. […] Treatment with MSC makes the arrangement less chaotic and more ‘normalized’ in arrangement.
# VEGF = VEGF expression (WB) and secretion (ELISA) in FaDu tumor cells in vitro; assay type: cell-based
# Excerpt: as §2
# [8] = test system: matrigel plug containing cultured FaDu tumor cells; assay: Matrigel plug (s.c.) containing cultured FaDu tumor cells, microvessel count; assay type: in vivo; details: 0.2 mg/mouse/day, after 1 week, 10^6 cells s.c., p<0.05
# Excerpt: as §2
# [9] = 14 days MSC pre-treatment, 2 hours post i.v., vs monotherapy
# [10] = combination treatment with SN-38
smiles,measurement,setting,value
"C[Se]C[C@H](N)C(=O)O [MSC, methylselenocysteine]",pericyte recruitment / α-SMA staining of tumor vasculature,FaDu tumors,Increased pericyte recruitment; also recorded: increased staining of α-SMA
same,"intratumoral drug concentration, CPT-11 (SN-38 per FIG. 6A)",[1]; [9],more than doubling
same,"intratumoral drug concentration, doxorubicin",[1]; [9],more than doubling
same,drug concentration in normal tissues,"[1]; liver, plasma, kidney, combination with MSC vs monotherapy",did not show a significant increase
same,minimum pretreatment required for optimal therapeutic synergy with irinotecan,HNSCC xenograft FaDu; daily MSC,≥ 7 days
same,therapeutic effect,HNSCC xenograft FaDu; with irinotecan,dose and schedule dependent
same,TSP-1 expression,Thrombospondin-1 (TSP-1),up regulates
same,intratumoral microvessel density (MVD),FaDu xenografts [2],decreases
same,apoptotic endothelial cell nuclei in angiogenic microvessels,[3],did not show apoptotic endothelial cell nuclei
same,HIF-1α expression,HIF-1α,significant inhibition
same,"direct antivascular effect (microvessel necrosis, endothelial cell death, microthrombus formation)",tumor microvessels,did not show any signs of other direct antivascular effect
same,tumor vascular volume,FaDu xenografts [4]; 14 days MSC treatment,statistically significant decrease
same,tumor vascular permeability (leakiness; slope of ΔR1),FaDu xenografts [4]; 14 days MSC vs volume matched control,reduction; also recorded: statistically significant decrease
same,DLL4 expression,[5],down-regulates
same,CD36 expression,CD36,up regulated
same,vasculature with uptake of both dyes ('normalized' functional vasculature),FaDu xenografts [6],approximately 80%
same,mean tumor vessel lumen area,[7]; p<0.0001,reduction
same,tumor vascular maturation index (VMI),[7]; p<0.05,significant increase
same,VEGF expression (WB),VEGF; [10],down regulates
same,VEGF secretion (ELISA),VEGF; [10],down regulates
same,VEGF secretion,VEGF; selenium alone,decreased
same,microvessel density in matrigel plug containing FaDu tumor cells,[8],decreases
